Assay results reported in paper PMC8418346, “Aromatic L-amino acid decarboxylase deficiency: a patient-derived neuronal model for precision therapies” (Brain, 2021).
Where a chain is given by its changes, count along the chain named. Names and notes keep the numbering of the source.

Tests used:
[1] = molecular target: T1, AADC (aromatic L-amino acid decarboxylase), recombinant (Homo sapiens, UniProt P20711); assay: kinetic parameters of recombinant AADC (method in supplement); format: biochemical; conditions: wild-type reference of the C100S comparison; main text does not state whether measured here or taken from earlier work
T1 construct: gene DDC; recombinant AADC produced in vitro; native homodimer
T1 sequence (P20711 1-480): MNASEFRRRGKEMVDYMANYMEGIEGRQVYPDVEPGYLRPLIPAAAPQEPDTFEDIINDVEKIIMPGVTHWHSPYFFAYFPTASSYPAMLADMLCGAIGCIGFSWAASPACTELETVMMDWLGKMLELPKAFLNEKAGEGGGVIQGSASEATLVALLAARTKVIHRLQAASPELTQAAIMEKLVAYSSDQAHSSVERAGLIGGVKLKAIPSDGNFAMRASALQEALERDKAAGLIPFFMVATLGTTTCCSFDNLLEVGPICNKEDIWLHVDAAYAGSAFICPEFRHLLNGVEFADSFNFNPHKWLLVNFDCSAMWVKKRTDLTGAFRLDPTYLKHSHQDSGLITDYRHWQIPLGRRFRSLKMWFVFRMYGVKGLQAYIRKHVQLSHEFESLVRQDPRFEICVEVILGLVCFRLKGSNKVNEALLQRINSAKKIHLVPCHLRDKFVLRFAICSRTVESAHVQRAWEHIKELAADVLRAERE

[2] = molecular target: T2, AADC (aromatic L-amino acid decarboxylase), recombinant (Homo sapiens, UniProt P20711, C100S); assay: PLP binding affinity of recombinant AADC (method in supplement)
T2 construct: gene DDC; recombinant AADC produced in vitro; native homodimer
T2 sequence (P20711 1-480 C100S): T1 sequence (P20711 1-480) with C100S
Text: PLP binding affinity of recombinant AADC (method in supplement) on AADC (aromatic L-amino acid decarboxylase), recombinant | with a KD(PLP) consistently lower than previously reported values for AADC variants

[3] = substrate: N[C@@H](Cc1ccc(O)c(O)c1)C(=O)O; assay: kinetic parameters of recombinant AADC (method in supplement); format: biochemical, Homo sapiens
Text: kinetic parameters of recombinant AADC (method in supplement) on AADC (aromatic L-amino acid decarboxylase), recombinant | attributed to a slight decrease in L-DOPA affinity (KM)

Molecule: N[C@@H](Cc1ccc(O)c(O)c1)C(=O)O [L-DOPA]
- KM [1]: catalytic activity (kcat) of AADCC100S was indeed similar to that observed for wild-type

Molecule: Cc1ncc(COP(=O)(O)O)c(C=O)c1O [PLP]
- Kd [2]: 112 ± 14 nM

B1: AADC (aromatic L-amino acid decarboxylase), recombinant (Homo sapiens; C100S) (protein)
chain: T1 sequence (P20711 1-480) with C100S
notes: recombinant AADC produced in vitro; native homodimer
- Km [3]: 420 ± 100 µM
- kcat [3]: 6.9 ± 0.6 s⁻¹
